This note sets out measurements from patent US20240109914A1, “IMIDAZOTHIAZOLE COMPOUNDS AND ANALOGS THEREOF AND METHODS FOR TREATING NEMATODE INFECTIONS IN PLANTS” (The Governing Council of The University of Toronto, priority 2021, published 2024).

In one data set the test system is M. incognita. As to the kind of experiment: Meloidogyne incognita infectivity assay (soil, tomato roots). The conditions noted are these: Meloidogyne incognita, 1344 h, 45 μM in soil, 8 weeks, eggs per mg root relative to DMSO control, read-out: % effectiveness at inhibiting reproduction of M. incognita. Format: in vivo. The text has this: An M. incognita population originally collected from grape (Vitis vinifera) in Parlier, California, was used for all experiments, and they were maintained on tomato plants (Solanum lycopersicum ‘Rutgers’) as previously described^47. Infective J2 juveniles were collected as described in ref. 47.

The subject of a further data set is Zebrafish. Briefly: Zebrafish dose-response experiments. Format: in vivo, Danio rerio. On the procedure: (§1) Zebrafish were maintained and handled under the guidance and approval of the Canadian Council on Animal Care and the Hospital for Sick Children Laboratory Animal Services. Dose-response assays were performed using zebrafish (Danio rerio) at 3 days post-fertilization. Three wild-type (TLAB) embryos were analyzed in each well of a 24-well plate containing 1 mL of E3 medium (5 mM NaCl, 0.17 mM KCl, 0.33 mM CaCl2, 0.33 mM MgSO4). Test compounds were added to each well to reach final concentrations of 45 μM, 15 μM, and 5 μM (0.5% v/v DMSO), as well as a DMSO control well. The viability of the fish was assessed after 3 days of test compound exposure using a Zeiss standard dissection microscope.

Data set [1] can be described thus: Zebrafish dose-response experiments. Format: in vivo, Danio rerio. The conditions noted are these: TLAB (wild-type), zebrafish (Danio rerio), in vivo; bound inferred from the tested concentrations, 3 days exposure. The procedure: as §1
In another data set the test system is HepG2 cells. As to the kind of experiment: HepG2 cell proliferation assay. Format: cell-based, human. On the procedure:
HepG2 cells, which are liver-derived, were counted using a haemocytometer, diluted, and seeded in […] to a final density of 5×10^4 cells/mL in 100 uL of RPMI-1640 medium supplemented with 10% heat inactivated fetal bovine serum (Gibco) and 1.2× Antibiotic-Antimycotic (Gibco). Cells were incubated at 37° C. with 5% CO2 for 24 hours. Subsequently, a 2-fold dilution series of test compound was added to cells at a final volume of 200 uL and incubated at 37° C. with 5% CO2 for 72 hours. After 72 hours, Alamar Blue (Invitrogen) was added to the Hep G2 cells at a final concentration of 0.5× and plates were incubated at 37° C. for 4 hours. Fluorescence was measured at Ex560 nm/Em590 nm and corrected for background from the medium. All assays were performed in technical triplicates and in at least two biological replicates. The IC50 value was defined as the concentration that inhibits cell proliferation by 50% of the untreated control cells.

The subject of the next data set is C. elegans. Briefly: C. elegans dose-response (viability, minimum lethal concentration). Format: in vivo, Caenorhabditis elegans. The conditions noted are these: Caenorhabditis elegans, 72 h, L1 worms, 3 days at 20° C. In a few lines:
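About 25 synchronized L1 worms per well in liquid NGM with HB101 E. coli, compound added immediately (final DMSO 1% v/v), 3 days at 20° C., then viable animals counted. Viability relative to DMSO control, averaged over ≥3 biological replicates; minimum lethal concentration = lowest concentration killing ≥20% of worms.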

For another data set, the system named is M. chitwoodi J2 larvae. Briefly: Meloidogyne chitwoodi in vitro larval mobility assay. Format: in vivo. The conditions noted are these: Meloidogyne chitwoodi, 48 h, 2 days, average of three replicates, read-out: % Immobile. On the procedure:
M. chitwoodi race 1 (the strain commonly found in the pacific northwest of the United States) was used for all experiments, and was maintained on tomato plants (Solanum lycopersicum ‘Rutgers’) as previously described^47. The microwell dose-response experiments were carried out similarly to previously described protocols^44,46. […] The chemicals were tested at 45 μM, and the final concentration of DMSO in each well was 0.5% (v/v). The wells were covered with a plastic adhesive strip, and the lids of the plates were sealed with parafilm. The plates were incubated at 25° C. for 2 days. The percent of worms that were immobile (% immobile) was quantified by counting the number of immobile worms after 2 days of incubation, dividing the number of immobile worms by the total number of worms in the well, and then multiplying by 100. […] The average % immobile value was calculated across the three replicates.

The subject of another data set is M. incognita J2 larvae. Briefly: Meloidogyne incognita in vitro larval mobility assay. Format: in vivo. The note with it: 45 μM, 4 days; for pest or weed control at 45 µM: Meloidogyne incognita, 96 h. In a few lines: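 Infective J2 juveniles of M. incognita Race 1, about 35 per well, were exposed to compound at 45 μM in deionized water with 0.5% DMSO for 4 days at 25° C without shaking. Immobile worms were counted as % of total, averaged over two replicates. A z-score against DMSO control wells was also computed, with z > 1.645 in both replicates marking a hit.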

The next data set has as its system tomato plants. Briefly: Root mass of tomato plants in the soil infectivity assay. The note with it: 45 μM in soil, 8 weeks.

The structures appear in SMILES notation. Where two headings read alike, the source gives them in different places.

As usually defined, the LC50 is the concentration that kills 50% of the test population. Low readings indicate greater toxicity, high ones lower toxicity. The term IC50 denotes the concentration that gives 50% inhibition. `Clc1ccc(-c2cn3ccsc3n2)nc1` [I-46]: the pest or weed control at 45 µM was 37.7% in the data set with M. incognita; 56.4% in the data set on M. chitwoodi J2 larvae; at least 75% in the data set on M. incognita J2 larvae (average of the two replicates, read-out: Average % Immobile); 73.2% with M. incognita J2 larvae (replicate 1, read-out: Replicate 1 % Immobile); 77.1% in the data set on M. incognita J2 larvae (replicate 2, read-out: Replicate 2 % Immobile). The “Zebrafish LC100” value in the data set with Zebrafish (3 days exposure, lowest concentration at which all of the fish are dead, 45, 15, 5 μM tested) was over 45 µM. In addition, the lethality to zebrafish result in the data set on Zebrafish (concentrations up to 45 μM, the highest concentration tested) is “non-lethal”. Also, in data set [1], the LC50 at 3 days was over 45 µM. The compound further had an IC50 in the data set with HepG2 cells (Homo sapiens, HepG2, 72 hours, Alamar Blue, cell proliferation) of over 100 µM. Besides, the “HepG2 IC50 (ppm)” value with HepG2 cells (approximate ppm equivalent of 100 μM) is over 23 ppm. Moreover, the minimal effective concentration came out at 100 µM with C. elegans (lowest concentration at which at least 20% of worms die, read-out: Minimum Lethal Concentration) and 23.6 µg/mL in the data set with C. elegans (same values in ppm, read-out: Minimum Lethal Concentration (ppm)). For the same compound, in the data set on M. incognita J2 larvae (replicate 1, z-score vs untreated DMSO wells), the “Replicate 1 z-score” value is “[10.33]”. Also, in the data set with M. incognita J2 larvae (replicate 2, z-score vs untreated DMSO wells), the “Replicate 2 z-score” value was “[12.18]”. The “Normalized root mass (relative to DMSO control)” value with tomato plants was determined as 1.56.
